The values below come from patent US8481494B2, “Compounds for the treatment of diseases related to protein misfolding” (priority 2009, dated 2013).

≈ marks a conversion by molar mass, not a printed value. Where two headings read alike, the source gives them in different places.

A short description of data set [1]: Solubility of the unprotected aminopyrazole trimers (stock solutions). The conditions noted are these: water (class a) or DMSO (class b).
Description: The ligands were dissolved in 100% DMSO as 4.95 mM stock solutions and were stored at −20° C.
The subject of data set [2] is differentiated rat pheochromocytoma (PC-12) cells. As to the kind of experiment: cells. Conditions: for PC-12 cell protection: in words, compared to the Trimer standard. How it is done: Next, to examine whether the aminopyrazole trimers could protect cell from Aβ42-induced neurotoxicity, cells were treated for […] with 10 μM Aβ(1-42), a concentration that produces 30 to 40% decrease in cell viability, in the absence or presence of 100 μM of each compound. The viability of the cells then was assessed using the MTT assay.
MTT viability assays. Cell viability assays were performed as described in Fradinger et al. (Fradinger et al., PNAS, 2008). Rat pheochromocytoma (PC-12) cells were maintained in F-12 nutrient mixture with Kaighn's modification (F-12K) (Gibco BRL, Carlsbad, Calif.) with 15% heat-inactivated horse serum and 2.5% FBS at 37° C. in an atmosphere of 5% CO2. For cell viability assays, cells were plated in 96-well plates at a density of 25,000 cells per well in differentiation media (F-12K, 0.5% FBS, […] nerve growth factor) and maintained for 48 h. Aβ42 was solubilized in a minimal amount of DMSO (Sigma) and then diluted in the F-12K media in the absence or presence of the compounds and then added to cells and incubated for 48 h at 37° C. The final Aβ42 concentration was always kept constant at 10 μM. The stock solutions of the compounds were prepared at 10 mM in DMSO and diluted in the F-12K media at the required concentration. Negative controls included DMSO at the same concentration as in the peptide solutions and media alone. A positive control was […] staurosporine as lethal dose which represented 100% reduction in cell viability, based on which the percentage viability of all of the experimental conditions was calculated. Cell viability was assessed quantitatively by the CellTiter 96 Non-Radioactive Cell Proliferation Assay (Promega). Briefly, 15 μl of 3-(4,5-dimethylthiazol-2-yl)-2,5-diphenyltetra-zolium bromide (MTT) dye solution was incubated with the cells for 3 h. Then 100 μl of solubilization/stop solution was added and the plates were incubated overnight in the dark to ensure complete solubilization. Plates were read by using a Synergy HT microplate reader (BioTek), and the absorbance at 570 nm (formazan product) minus the absorbance at 630 nm (background) was recorded. Corrected absorbance was used to calculate the percent cell viability from the experimental change (Amedia-Aexperimental) over the dynamic range (Amedia-Astaurosporine). At least three independent experiments with six replicates (n≧18) were carried out, and the results were averaged.
To determine the IC50 value of each of the compounds, dose-dependence MTT experiments with the compounds were conducted. Aβ42 was used at 10 μM and the compounds were used at 100, 30, 10, 3, 1 and 0.3 μM. Three independent experiments with six replicates (n≧18) were carried out, and results were averaged. The data for each compound was fitted to the following equation to get the IC50 values. y=Bottom+((Top−Bottom)/(1+10^(x-log(IC^50^))))
Top: the y value at which the top of the sigmoidal curve becomes parallel to the X-axis; Bottom: the y value at which the bottom of the sigmoidal curve becomes parallel to the X-axis.
Also, MTT viability assays were run with differentiated PC-12 cells.

In a further data set the target is T1, Aβ(1-42) (Homo sapiens, UniProt P05067).
T1 construct: Aβ(1-42)-peptide (Bachem, Bubendorf, Germany) was prepared in HFIP; purchased Bachem, Bubendorf
As to the kind of experiment: ThT equilibrium inhibition assay of Aβ aggregation. Format: biochemical. Conditions: Aβ(1-42), in words. How it is done:
After 72 h, the aggregation process has reached a maximum in the absence or presence of any trimeric ligand, even for the slow Aβ (1-40) peptide. The respective equilibrium concentration is then indicated by the relative fluorescence intensity reached at the end point. The full series of new aminopyrazole trimer derivatives was subjected to ThT inhibition experiments and the final equilibrium was analyzed by comparison of the respective fluorescence intensities of intercalated dye at 482 nm (exc. at 442 nm). […] Their proposed mechanism of action is discussed within the next chapters together with all the other biophysical, biochemical as well as modeling data.
Thioflavin T (ThT) measurements were carried out in a 384-well plate (Nunc GmbH, Wiesbaden, Germany) in an InfiniTe 200 plate reader (Tecan GmbH, Crailsheim, Germany). Fluorescence intensity was measured at 37° C., 446 nm excitation wavelength (bandwidth 9 nm) and 490 nm emission wavelength with a bandwidth of 20 nm. Each data point was averaged over 40 lamp flashes. Each measurement cycle was started by shaking the sample carrier orbitally for 30 s at medium intensity to avoid settling of larger aggregates. The 384-well plate was covered with a transparent and DMSO-stable film (Nunc GmbH, Wiesbaden, Germany). Each single sample was composed of 33 μM Aβ(1-40) or rather Aβ(1-42) in 10 mM PBS (phosphate buffered saline), 10.7% DMSO, 10 μM ThT and 198 μM of the test compound. For graph representation emission values of fourfold samples were averaged. Each test compound was measured separately, both in 10 mM PBS and 10 mM PBS with ThT to exclude any potential interactions between ligand and ThT.
The ThT assay solution was briefly centrifugated and it was pipetted in a 384-well plate. The ThT fluorescence was measured at λEx=446 nm and λEm=490 nm. Each point is the average of quadruplication.

Setting [3] is: Rattus norvegicus, PC-12, read-out: IC50 of inhibition of Aβ-induced toxicity.

T1 sequence (P05067 672-713 limits assumed): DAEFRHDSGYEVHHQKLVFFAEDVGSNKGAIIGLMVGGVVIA

`NCCCC[C@H](NC(=O)c1cc(NC(=O)c2cc(NC(=O)c3cc([N+](=O)[O-])n[nH]3)n[nH]2)n[nH]1)C(=O)NCCCOCCOCCOCCCNC(=O)[C@H](CCCCN)NC(=O)c1cc(NC(=O)c2cc(NC(=O)c3cc([N+](=O)[O-])n[nH]3)n[nH]2)n[nH]1` [Trim-Lys-TEGDA-Lys-Trim, N,N′-((5S,23S)-1,27-diamino-6,22-dioxo-11,14,17-trioxa-7,21-diazaheptacosane-5,23-diyl)bis(3-(3-(3-nitro-1H-pyrazole-5-carboxamido)-1H-pyrazole-5-carboxamido)-1H-pyrazole-5-carboxamide)] returned a solubility in data set [1] of more than 4.95 mM. The IC50 in data set [2] (setting [3]) stood at 21.5 µM.
With `CC(NC(=O)c1cc(NC(=O)c2cc(NC(=O)c3cc([N+](=O)[O-])n[nH]3)n[nH]2)n[nH]1)C1CCCCC1` (stereo not shown) [Trimer-Che, N-(1-Cyclohexylethyl)-3-(3-(3-nitro-1H-pyrazole-5-carboxamido)-1H-pyrazole-5-carboxamido)-1H-pyrazole-5-carboxamide], the solubility in data set [1] is 0.2 to 4.95 mM (≈ 96.9 to 2400 µg/mL). Further, the “ThT values compared with the original trimer” value on Aβ(1-42) was “surpass the original trimer activity”.
`CC(NC(=O)C(NC(=O)c1cc(NC(=O)c2cc(NC(=O)c3cc([N+](=O)[O-])n[nH]3)n[nH]2)n[nH]1)C1CCCCC1)C1CCCCC1` (stereo not shown) [Trimer-Chg-Che, N-(1-Cyclohexyl-2-(1-cyclohexylethylamino)-2-oxoethyl)-3-(3-(3-nitro-1H-pyrazol-5-carboxamido)-1H-pyrazol-5-carboxamido)-1H-pyrazol-5-carboxamide] came in with a solubility in data set [1] of 0.2 to 4.95 mM (≈ 125 to 3090 µg/mL). Besides, the IC50 in data set [2] (setting [3]) came to 81 µM.
`O=C(O)CCCNC(=O)c1cc(NC(=O)c2cc(NC(=O)c3cc([N+](=O)[O-])n[nH]3)n[nH]2)n[nH]1` [Trimer-GABA-OH, 4-(3-(3-(3-Nitro-1H-pyrazole-5-carboxamido)-1H-pyrazole-5-carboxamido)-1H-pyrazole-5-carboxamido)butanoic acid] registered a solubility in data set [1] of 0.2 to 4.95 mM (≈ 92.1 to 2280 µg/mL). In addition, the IC50 in data set [2] (setting [3]) turned out to be 18.5 µM. Further, the “ThT values compared with the original trimer” value on Aβ(1-42) is listed as “above the trimer standard”.
In data set [1], `COC(=O)CCCNC(=O)c1cc(NC(=O)c2cc(NC(=O)c3cc([N+](=O)[O-])n[nH]3)n[nH]2)n[nH]1` [Trimer-GABA-OMe, 4-(3-(3-(3-Nitro-1H-pyrazole-5-carboxamido)-1H-pyrazole-5-carboxamido)-1H-pyrazole-5-carboxamido)butanoic acid methyl ester] returned a solubility of 0.2 to 4.95 mM (≈ 94.9 to 2350 µg/mL). In data set [2] (setting [3]), the half-maximal inhibitory concentration (IC50) is 20.3 µM. For the same compound, the “ThT values compared with the original trimer” value on Aβ(1-42) is listed as “above the trimer standard”.
Compound `CC(NC(=O)C(CCCCN)NC(=O)c1cc(NC(=O)c2cc(NC(=O)c3cc([N+](=O)[O-])n[nH]3)n[nH]2)n[nH]1)C1CCCCC1.O=C(O)C(F)(F)F` (stereo not shown) [Trimer-Lys-Che, N-(6-Amino-1-(1-cyclohexylethylamino)-1-oxohexan-2-yl)-3-(3-(3-nitro-1H-pyrazole-5-carboxamido)-1H-pyrazole-5-carboxamido)-1H-pyrazole-5-carboxamide-trifluoro-acetate] came in with a solubility in data set [1] of more than 4.95 mM. The “ThT values compared with the original trimer” value on Aβ(1-42) was “surpass the original trimer activity”.
In data set [1], `CC(NC(=O)COCCOCCOCCNC(=O)c1cc(NC(=O)c2cc(NC(=O)c3cc([N+](=O)[O-])n[nH]3)n[nH]2)n[nH]1)C1CCCCC1` (stereo not shown) [Trimer-TEG-Che, N-(13-Cyclohexyl-11-oxo-3,6,9-trioxa-12-azatetradecyl)-3-(3-(3-nitro-1H-pyrazole-5-carboxamido)-1H-pyrazole-5-carboxamido)-1H-pyrazole-5-carboxamide] showed a solubility of 0.2 to 4.95 mM (≈ 135 to 3330 µg/mL).
`CCCCCCCCCCCCNC(=O)COCCOCCOCCNC(=O)c1cc(NC(=O)c2cc(NC(=O)c3cc([N+](=O)[O-])n[nH]3)n[nH]2)n[nH]1` [Trimer-TEG-Dodecyl, 3-Nitro-N-(5-(5-(11-oxo-3,6,9-trioxa-12-azatetracosylcarbamoyl)-1H-pyrazol-3-ylcarbamoyl)-1H-pyrazol-3-yl)-1H-pyrazole-5-carboxamide]: the solubility in data set [1] is 0.2 to 4.95 mM (≈ 146 to 3620 µg/mL). For the same compound, the IC50 in data set [2] (setting [3]) is more than 100 µM.
In turn, `CCOC(=O)COCCOCCOCCNC(=O)c1cc(NC(=O)c2cc(NC(=O)c3cc([N+](=O)[O-])n[nH]3)n[nH]2)n[nH]1` [Trimer-TEG-OEt, 1-(3-(3-(3-Nitro-1H-pyrazole-5-carboxamido)-1H-pyrazole-5-carboxamido)-1H-pyrazole-5-yl)-1-oxo-5,8,11-trioxa-2-azatridecan-13-oic acid ethyl ester] registered a solubility in data set [1] of 0.2 to 4.95 mM (≈ 119 to 2930 µg/mL). The PC-12 cell protection result in data set [2] was “only very modest”.
In data set [1], `O=C(O)COCCOCCOCCNC(=O)c1cc(NC(=O)c2cc(NC(=O)c3cc([N+](=O)[O-])n[nH]3)n[nH]2)n[nH]1` [Trimer-TEG-OH, {2-[2-(2-{[5-({5-[(5-Nitro-2H-pyrazole-3-carbonyl)-amino]-2H-pyrazole-3-carbonyl}-amino)-2H-pyrazole-3-carbonyl]-amino}-ethoxy)-ethoxy]-ethoxy}-acetic acid] returned a solubility of 0.2 to 4.95 mM (≈ 113 to 2790 µg/mL). Also, the IC50 in data set [2] (setting [3]) was determined as 35.3 µM. Moreover, in data set [2], the PC-12 cell protection entry is recorded as “only very modest”.
For the compound `NCCNC(=O)c1cc(NC(=O)c2cc(NC(=O)c3cc([N+](=O)[O-])n[nH]3)n[nH]2)n[nH]1` [Trimer-diamine, N-(2-Aminoethyl)-3-(3-(3-nitro-1H-pyrazole-5-carboxamido)-1H-pyrazole-5-carboxamido)-1H-pyrazole-5-carboxamide], the solubility in data set [1] was 0.2 to 4.95 mM (≈ 83.5 to 2070 µg/mL). In addition, the “ThT values compared with the original trimer” value at Aβ(1-42) is recorded as “above the trimer standard”.
In the case of “Trimer-TEG-LPFFD-OH [1-(3-(3-(3-nitro-1H-pyrazole-5-carboxamido)-1H-pyrazole-5-carbox-amido)-1H-pyrazol-5-yl)-1-oxo-5,8,11-trioxa-2-azatridecan-13-carboxamido-(S)-leucinyl-(S)-prolinyl-(S)-phenylalaninyl-(S)-phenylalaninyl-(S)-aspartic acid]”, the IC50 in data set [2] (read-out: IC50 of inhibition of Aβ-induced toxicity, PC-12 cells, MTT, Aβ42 10 μM, ligand 0.3-100 μM) is 10.1 µM.

The term solubility denotes the dissolved amount per volume that the medium holds. A low value points to a poorly soluble substance. The term IC50 denotes the concentration that gives 50% inhibition.
